Assay results from PubChem BioAssay (NCI).
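96-well plates; 48 h exposure; 5 concentrations. Endpoints by linear interpolation between flanking doses. Not reached: highest tested concentration assigned. GI50 is the concentration that inhibits growth by half. TGI is the concentration that stops growth completely.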

Tests used:
Assay in all cases: NCI tumour cell line growth inhibition, 48 h
SF-268 CNS = system: SF-268 CNS
SN12C renal = system: SN12C renal
KM12 colon = system: KM12 colon
A498 renal = system: A498 renal
UACC-62 melanoma = system: UACC-62 melanoma
TK-10 renal = system: TK-10 renal
MCF7 breast = system: MCF7 breast
786-0 renal = system: 786-0 renal
SW-620 colon = system: SW-620 colon
NCI-H460 lung = system: NCI-H460 lung
HOP-92 NSCLC = system: HOP-92 NSCLC
HS 578T breast = system: HS 578T breast
HL-60(TB) leukemia = system: HL-60(TB) leukemia
SK-MEL-2 melanoma = system: SK-MEL-2 melanoma
SNB-19 CNS = system: SNB-19 CNS
UO-31 renal = system: UO-31 renal
HCT-15 colon = system: HCT-15 colon
OVCAR-8 ovarian = system: OVCAR-8 ovarian
OVCAR-3 ovarian = system: OVCAR-3 ovarian
CCRF-CEM leukemia = system: CCRF-CEM leukemia
SK-MEL-28 melanoma = system: SK-MEL-28 melanoma
HCC-2998 colon = system: HCC-2998 colon
DU-145 prostate = system: DU-145 prostate
OVCAR-5 ovarian = system: OVCAR-5 ovarian
HOP-62 NSCLC = system: HOP-62 NSCLC
CAKI-1 renal = system: CAKI-1 renal
COLO 205 colon = system: COLO 205 colon
NCI-H226 lung = system: NCI-H226 lung
IGROV1 ovarian = system: IGROV1 ovarian
ACHN renal = system: ACHN renal
K-562 leukemia = system: K-562 leukemia
NCI-H522 lung = system: NCI-H522 lung
NCI/ADR-RES ovarian = system: NCI/ADR-RES ovarian
RXF 393 renal = system: RXF 393 renal
HCT-116 colon = system: HCT-116 colon
SF-539 CNS = system: SF-539 CNS
LOX IMVI melanoma = system: LOX IMVI melanoma
SF-295 CNS = system: SF-295 CNS
SK-MEL-5 melanoma = system: SK-MEL-5 melanoma
PC-3 prostate = system: PC-3 prostate
OVCAR-4 ovarian = system: OVCAR-4 ovarian
BT-549 breast = system: BT-549 breast
UACC-257 melanoma = system: UACC-257 melanoma
MOLT-4 leukemia = system: MOLT-4 leukemia
NCI-H23 lung = system: NCI-H23 lung
SK-OV-3 ovarian = system: SK-OV-3 ovarian
M14 melanoma = system: M14 melanoma
SR leukemia = system: SR leukemia
RPMI-8226 leukemia = system: RPMI-8226 leukemia
A549 NSCLC = system: A549 NSCLC
HT29 colon = system: HT29 colon
U251 CNS = system: U251 CNS
T-47D breast = system: T-47D breast

## COc1cc(C(=O)NC2CCN(C)CC2)c(F)cc1Nc1ncc2c(n1)N(C1CCCC1)CC(F)(F)C(=O)N2C
SF-268 CNS
  GI50: < 0.025 µM
  TGI: 12.1 µM
SN12C renal
  GI50: 0.0604 µM
  TGI: 14.4 µM
KM12 colon
  GI50: < 0.01 µM
  TGI: 14 µM
A498 renal
  GI50: < 0.0196 µM
  TGI: 0.14 µM
UACC-62 melanoma
  GI50: < 0.0237 µM
  TGI: 13.7 µM
TK-10 renal
  TGI: 12.6 µM
MCF7 breast
  GI50: < 0.01 µM
  TGI: 11.9 µM
786-0 renal
  GI50: 0.0435 µM
  TGI: 11.7 µM
SW-620 colon
  GI50: < 0.01 µM
  TGI: 11.5 µM
NCI-H460 lung
  GI50: < 0.0168 µM
  TGI: 12.4 µM
HOP-92 NSCLC
  GI50: 0.0326 µM
  TGI: 0.391 µM
HS 578T breast
  GI50: < 0.0342 µM
  TGI: 10.4 µM
HL-60(TB) leukemia
  GI50: < 0.01 µM
  TGI: < 0.0197 µM
SK-MEL-2 melanoma
  GI50: < 0.01 µM
  TGI: 3.4 µM
SNB-19 CNS
  GI50: < 0.0281 µM
  TGI: 17.1 µM
UO-31 renal
  TGI: 10.5 µM
HCT-15 colon
  GI50: < 0.0213 µM
  TGI: 14 µM
OVCAR-8 ovarian
  GI50: 0.0338 µM
  TGI: 18.7 µM
OVCAR-3 ovarian
  GI50: < 0.0155 µM
  TGI: 5.87 µM
CCRF-CEM leukemia
  GI50: < 0.01 µM
  TGI: 3.58 µM
SK-MEL-28 melanoma
  GI50: < 0.0209 µM
  TGI: 16.2 µM
HCC-2998 colon
  GI50: 0.0293 µM
  TGI: 12.3 µM
DU-145 prostate
  GI50: 0.0179 µM
  TGI: 11.2 µM
OVCAR-5 ovarian
  GI50: < 0.0191 µM
  TGI: 14.3 µM
HOP-62 NSCLC
  GI50: < 0.0141 µM
  TGI: 13.2 µM
CAKI-1 renal
  GI50: < 0.0243 µM
  TGI: 3.71 µM
COLO 205 colon
  GI50: < 0.01 µM
  TGI: 0.177 µM
NCI-H226 lung
  GI50: 2.64 µM
  TGI: 18.7 µM
IGROV1 ovarian
  GI50: < 0.0217 µM
  TGI: 14.5 µM
ACHN renal
  GI50: < 0.0378 µM
  TGI: 14.4 µM
K-562 leukemia
  GI50: < 0.01 µM
  TGI: 4 µM
NCI-H522 lung
  GI50: < 0.01 µM
  TGI: < 0.0208 µM
NCI/ADR-RES ovarian
  GI50: < 0.0329 µM
  TGI: 13.6 µM
RXF 393 renal
  GI50: < 0.0169 µM
  TGI: 15.2 µM
HCT-116 colon
  GI50: < 0.0142 µM
  TGI: 12 µM
SF-539 CNS
  GI50: < 0.0181 µM
  TGI: 1.3 µM
LOX IMVI melanoma
  GI50: < 0.0186 µM
  TGI: 4.96 µM
SF-295 CNS
  GI50: < 0.0176 µM
SK-MEL-5 melanoma
  GI50: < 0.022 µM
  TGI: 2.32 µM
PC-3 prostate
  GI50: < 0.0201 µM
  TGI: 18.3 µM
OVCAR-4 ovarian
  GI50: 0.396 µM
  TGI: 14.1 µM
BT-549 breast
  GI50: 1.87 µM
  TGI: 20 µM
UACC-257 melanoma
  GI50: 1.25 µM
  TGI: 10.9 µM
MOLT-4 leukemia
  GI50: 0.0171 µM
  TGI: 2.53 µM
NCI-H23 lung
  GI50: < 0.0182 µM
  TGI: 3.4 µM
SK-OV-3 ovarian
  GI50: < 0.0132 µM
  TGI: 1.02 µM
M14 melanoma
  GI50: 0.0235 µM
  TGI: 5.89 µM
SR leukemia
  GI50: < 0.01 µM
RPMI-8226 leukemia
  GI50: < 0.022 µM
  TGI: 3.26 µM
A549 NSCLC
  GI50: < 0.0184 µM
  TGI: 2.31 µM
HT29 colon
  GI50: < 0.01 µM
  TGI: 11.1 µM
U251 CNS
  GI50: < 0.0204 µM
  TGI: 14.5 µM
T-47D breast
  GI50: < 0.0315 µM
  TGI: 13 µM
